Tested on: anti-DNP antibody
Experiment: FACS bead model: DNP beads versus acetyl beads with anti-DNP antibody in sera
Assay type: binding
Details: FIG. 40; 1,000 ug/mL sera concentration
Procedure: The Mean fluorescence intensity (MFI) separation was greatest at the higher dilution of 1,000 ug/mL sera.

competition with binding of DNP (on a plate) to anti-DNP antibody: direct competition
Structure (SMILES): O=[N+]([O-])c1ccc(NCCO)c([N+](=O)[O-])c1 [ethanolamine-DNP]

Reference: US9804168B2, “Biomarker discovery in complex biological fluid using bead or particle based libraries and diagnostic kits and therapeutics” (OPKO Pharmaceuticals, LLC, priority 2011, dated 2017)
